According to US8557984B2, “Imidazo [4, 5-C] quinoline derivatives as bromodomain inhibitors” (GlaxoSmithKline LLC, priority 2009, dated 2013):

Legend:
[1] = system: IL-6; assay: Measurement of LPS Induced IL-6 Secretion from Whole Blood; type: cell-based; conditions: LPS 200 ng/ml, 24 hours, read-out: pIC50 (IL-6 levels) (converted)
Description: (§1) Activation of monocytic cells by agonists of toll-like receptors such as bacterial lipopolysaccharide (LPS) results in production of key inflammatory mediators including IL-6. Such pathways are widely considered to be central to the pathophysiology of a range of auto-immune and inflammatory disorders.
Compounds to be tested are diluted to give a range of appropriate concentrations of which 1 ul of the diluted stocks is added to a 96 well plate. Following addition of whole blood (130 ul) the plates are incubated at 37 degrees (5% CO2) for 30 min before the addition of 10 ul of 2.8 ug/ml LPS, diluted in complete RPMI 1640 (final concentration=200 ng/ml), to give a total volume of 140 ul per well. After further incubation for 24 hours at 37 degrees, 140 ul of PBS are added to each well. The plates are sealed, shaken for 10 minutes and then centrifuged (2500 rpm×10 min). 100 ul of the supernatant are removed and IL-6 levels assayed by immunoassay (typically by MesoScale Discovery technology) either immediately or following storage at −20 degrees. Concentration response curves for each compound was generated from the data and an IC50 value was calculated

[2] = system: Balb/c male mice; assay: In Vivo Mouse Endotoxemia Model; conditions: 15 mg/kg LPS i.p., compound 10 mg/kg intravenously ninety minutes later; for Numbers of animals surviving at 4 days (summed across multiple repeat experiments): survivors/total
Excerpt: High doses of Endotoxin (bacterial lipopolysaccharide) administered to animals produce a profound shock syndrome including a strong inflammatory response, dysregulation of cardiovascular function, organ failure and ultimately mortality. This pattern of response is very similar to human sepsis and septic shock, where the body's response to a significant bacterial infection can be similarly life threatening.
To test the compounds for use in the invention groups of eight Balb/c male mice were given a lethal dose of 15 mg/kg LPS by intraperitoneal injection. Ninety minutes later, animals were dosed intravenously with vehicle (20% cyclodextrin 1% ethanol in apyrogen water) or compound (10 mg/kg). The survival of animals was monitored at 4 days.
Numbers of animals surviving at 4 days (summed across multiple repeat experiments)

[3] = system: heme cell lines; assay: Oncology Cell Growth Assay, heme cell lines; type: cell-based; conditions: Homo sapiens, 72 hours, CellTiter-Glo, read-out: gIC50
Description: (§2) Human cell lines (n=33 comprising 15 heme cell lines, […] and 4 other cell lines) were cultured in RPMI-1640 containing 10% fetal bovine serum, 1000 viable cells per well were plated in 384-well black flat bottom polystyrene plates (Greiner #781086) in 48 μl of culture media. All plates were placed at 5% CO2, 37° C. overnight. The following day one plate was harvested with CellTiter-Glo (CTG, Promega #G7573) for a time equal to 0 (T0) measurement and compound (20 point titration from 14.7 uM to 7 pM) was added to the remaining plates. The final concentration of DMSO in all wells was 0.15%. Cells were incubated for 72 hours or the indicated time and each plate was developed with CellTiter-Glo reagent using a volume equivalent to the cell culture volume in the wells. Plates were shaken for approximately 2 minutes and chemiluminescent signal was read on the Analyst GT (Molecular Devices) or EnVision Plate Reader (Perkin Elmer).
(§3) Results were expressed as a percent of the T0 and plotted against the compound concentration. […] The Ymin-T0 value is determined by subtracting the T0 value (100%) from the Ymin value (%) determined from the fit of the concentration response curve. […]

[4] = system: breast cell lines; assay: Oncology Cell Growth Assay, breast cell lines; type: cell-based; conditions: Homo sapiens, 72 hours, CellTiter-Glo, read-out: gIC50
Description: as §2, §3

[5] = system: Human cell lines (n=33 comprising 15 heme cell lines, 14 breast cell lines and 4 other cell lines); assay: Oncology Cell Growth Assay, all cell lines; type: cell-based; conditions: across all cell lines, 72 hours, CellTiter-Glo, read-out: gIC50
Description: as §2, §3

[6] = system: TNFα; assay: LPS Stimulated Whole Blood Measuring TNFα Levels Assay; type: cell-based; conditions: LPS 200 ng/ml, 24 h, read-out: pIC50 (TNFα levels) (converted)
Description: as §1, with “TNFα.” for “IL-6.”
Compounds to be tested are diluted to give a range of appropriate concentrations and 1 ul of the dilution stocks is added to wells of a 96 plate. Following addition of whole blood (130 ul) the plates are incubated at 37 degrees (5% CO2) for 30 min before the addition of 10 ul of 2.8 ug/ml LPS, diluted in complete RPMI 1640 (final concentration=200 ng/ml), to give a total volume of […] per well. After further incubation for 24 h at 37 degrees, 140 ul of PBS are added to each well. The plates are sealed, shaken for 10 minutes and then centrifuged (2500 rpm×10 min). 100 ul of the supernatant are removed and TNFα levels assayed by immunoassay (typically by MesoScale Discovery technology) either immediately or following storage at −20 degrees. Dose response curves for each compound was generated from the data and an IC50 value was calculated.

Row | IC50 [1] | IC50 [6] | SMILES | also measured
1 | ≤ 3.16 µM | – | COc1cc2c(cc1-c1c(C)noc1C)ncc1[nH]c(=O)n([C@@H](C)c3ccccn3)c12 (single isomer, unassigned) [Example 39] | –
2 | ≤ 3.16 µM | – | COc1cc2c(cc1-c1c(C)noc1C)ncc1nc(C3CCOCC3)n([C@H](C)c3ccccn3)c12 (single isomer, unassigned) [Example 45] | –
3 | – | ≤ 3.16 µM | COc1cc2c(cc1-c1c(C)noc1C)ncc1[nH]c(=O)n(-c3ccccc3OC(F)(F)F)c12 [Example 12, 7-(3,5-dimethyl-4-isoxazolyl)-8-(methoxy)-1-{2-[(trifluoromethyl)oxy]phenyl}-1,3-dihydro-2H-imidazo[4,5-c]quinolin-2-one] | –
4 | – | ≤ 3.16 µM | COc1cc2c(cc1-c1c(C)noc1C)ncc1[nH]c(=O)n(Cc3ccccc3)c12 [Example 15] | –
5 | – | – | Cc1noc(C)c1-c1ccc2c(c1)ncc1ncn(-c3ccccc3C(C)(C)C)c12 [Example 18, 1-[2-(tert-butyl)phenyl]-7-(3,5-dimethyl-4-isoxazolyl)-1H-imidazo[4,5-c]quinoline] | melting point: 216 °C
6 | – | ≤ 3.16 µM | COc1cc2c(cc1-c1c(C)noc1C)ncc1nc(C3CCOCC3)n(Cc3ccccn3)c12 [Example 27, 7-(3,5-dimethyl-4-isoxazolyl)-8-(methoxy)-1-(2-pyridinylmethyl)-2-(tetrahydro-2H-pyran-4-yl)-1H-imidazo[4,5-c]quinoline] | –
7 | ≤ 3.16 µM | – | COCCn1c(=O)n([C@H](C)c2ccccn2)c2c3cc(OC)c(-c4c(C)noc4C)cc3ncc21 [Example 37, 7-(3,5-dimethyl-4-isoxazolyl)-8-(methyloxy)-3-[2-(methyloxy)ethyl]-1-[(1R)-1-(2-pyridinyl)ethyl]-1,3-dihydro-2H-imidazo[4,5-c]quinolin-2-one] | –
8 | ≤ 3.16 µM | – | COc1cc2c(cc1-c1c(C)noc1C)ncc1[nH]c(=O)n(C(C)c3cnn(C)c3)c12 (stereo not drawn) [Example 40, 7-(3,5-dimethyl-4-isoxazolyl)-8-(methyloxy)-1-[1-(1-methyl-1H-pyrazol-4-yl)ethyl]-1,3-dihydro-2H-imidazo[4,5-c]quinolin-2-one] | –
9 | ≤ 3.16 µM | – | COCc1nc2cnc3cc(-c4c(C)noc4C)c(OC)cc3c2n1C(C)c1ccccn1 (stereo not drawn) [Example 51, 7-(3,5-dimethyl-4-isoxazolyl)-8-(methyloxy)-2-[(methyloxy)methyl]-1-[1-(2-pyridinyl)ethyl]-1H-imidazo[4,5-c]quinoline] | –
10 | – | ≤ 3.16 µM | COc1cc2c(cc1-c1c(C)n[nH]c1C)ncc1nc(C3CCOCC3)n([C@H](C)c3ccccc3)c12 [Example 108, 7-(3,5-dimethyl-1H-pyrazol-4-yl)-8-(methyloxy)-1-[(1R)-1-phenylethyl]-2-(tetrahydro-2H-pyran-4-yl)-1H-imidazo[4,5-c]quinoline] | –
11 | – | ≤ 3.16 µM | COc1nc2c(cc1-c1c(C)noc1C)ncc1[nH]c(=O)n(-c3ccccc3OC(F)(F)F)c12 [Example 126, 7-(3,5-dimethyl-4-isoxazolyl)-8-(methyloxy)-1-{2-[(trifluoromethyl)oxy]phenyl}-1,3-dihydro-2H-imidazo[4,5-c]-1,5-naphthyridin-2-one] | –

Row | SMILES | IC50 [1] | IC50 [6] | also measured
12 | COc1cc2c(cc1-c1c(C)noc1C)ncc1[nH]c(=O)n([C@H](C)c3ccccn3)c12 [Example 11, 7-(3,5-dimethyl-4-isoxazolyl)-8-(methoxy)-1-[(1R)-1-(2-pyridinyl)ethyl]-1,3-dihydro-2H-imidazo[4,5-c]quinolin-2-one] | ≤ 3.16 µM | ≤ 3.16 µM | Animals surviving at 4 days, percent [2]: 83%; Numbers of animals surviving at 4 days (summed across multiple repeat experiments) [2]: 55/66; IC50 [3]: 118 to 1040 nM; IC50 [4]: 0.432 to 11.1 µM; IC50 [5]: 0.118 to 11.1 µM
13 | COc1cc2c(cc1-c1c(C)noc1C)ncc1nc(C3CCOCC3)n([C@H](C)c3ccccc3)c12 [Example 31, 7-(3,5-dimethyl-4-isoxazolyl)-8-(methoxy)-1-[(1R)-1-phenylethyl]-2-(tetrahydro-2H-pyran-4-yl)-1H-imidazo[4,5-c]quinoline] | – | ≤ 3.16 µM | Animals surviving at 4 days, percent [2]: 38%; Numbers of animals surviving at 4 days (summed across multiple repeat experiments) [2]: 9/24
